Measurements as given in patent US10774064B2 (Cadent Therapeutics, Inc., priority 2016, dated 2020).
Read-outs that look alike come from different tables or passages of the source.

What was measured:
harmaline induced tremor = harmaline induced tremor in rats; format: in vivo, Male Sprague Dawley rats
Protocol: Immediately following harmaline injection, animals were placed in the tremor quantification apparatus and tremor events were quantified for 60 minutes. A tremor event signal was generated when a small metal transmitter band fitted to the right forepaw of the animal moved within the electromagnetic field generated by a loop antenna within the testing apparatus. Outputs from the amplifier were digitized at a sampling rate of 1,000 Hz and the signal was processed and analyzed using LabView software (National Instruments). To minimize signal from ambulatory and grooming behavior, the signal was filtered with a 128-ms nonweigthed moving average filter, and events with amplitudes >0.5 V and lasting >300 ms in duration were counted as a tremor event. Data were analyzed in one-minute bins over the course of the test and presented as the sum of tremor events over the entire 60 minute test.

[1] = biological target: T1, small-conductance Ca2+-activated K+ channels (SK channels, subtype 2) (Homo sapiens, UniProt Q9H2S1); assay: whole-cell patch-clamp of ionic current through SK2 channels in HEK293 cells (SC100); format: cell-based; conditions: for SC100 (μM): whole-cell patch-clamp, HEK293 cells expressing SK2 channels, concentration that increases the basal current by 100%
T1 construct: expressed in transfected cells; host or cells: HEK293
How it was run: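 SC100, the concentration doubling basal current (a 100% increase), was taken from SK2 currents recorded by whole-cell patch-clamp in SK2-expressing HEK293 cells.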

[2] = brain concentration by mass spectrometry from brains harvested after tremor recording; free brain concentration and % SK2 SC100; format: in vivo, Male Sprague Dawley rats; conditions: male, Sprague Dawley, rat, oral, 30 mg/Kg
From the text: The amount of free compound is then expressed in terms of its potency against the SK2 channel as follows: % SK2 SC100=CFB/SK2 SC100×100, where SK2 SC100 (Table 3, “SK2 SC100”) is the measured value of potency of the compound against SK2 channels and % SK2 SC100 (Table 3, “% SK2 SC100”) is the free brain concentration (CFB) normalized to SK2 SC100. Thus the % SK2 SC100 gives a measure of the degree to which each of the compounds is modulating SK2 channels regardless of differences in potency or exposure. Values are given in […]

Structure (SMILES)	SC100 (μM) [1]	also measured
Cc1ccn(-c2nc(NC3CCC(F)(F)CC3)cc(N3CCOCC3)n2)n1 [Compound 359, N-(4,4-difluorocyclohexyl)-2-(3-methyl-1H-pyrazol-1-yl)-6-morpholinopyrimidin-4-amine]		inhibition of tremors (sum of tremor events over 60 minutes) (harmaline induced tremor; 30 mg/Kg oral, 30 minutes prior to harmaline injection, FIG. 1): significant inhibition of tremors; Minimally Efficacious Dose (harmaline induced tremor; oral administration 30 minutes prior to harmaline injection, rats): 30 mg/kg; Measured SK2 SC100 ([1]; potency against SK2 channels): 0.5 µM; concentration at 90 min ([2]; CFB=CMB×BFF, read-out: Calculated Free Brain Concentration): 80 nM; concentration at 90 min ([2]; brains harvested immediately following tremor recording, mass spectrometry, at minimally efficacious dose, read-out: Measured Brain Concentration): 1300 nM
COc1ccn(-c2nc(C)cc(NC3CCC(F)(F)CC3)n2)n1 [NSSy6994, N-(4,4-difluorocyclohexyl)-2-(3-methoxy-1H-pyrazol-1-yl)-6-methylpyrimidin-4-amine]	++ (++ means 200 nM-1000 nM)	
Cc1nn(-c2nc(NC3CCC(F)(F)CC3)cc(N3CCOCC3)n2)c(C)c1F [NSSy7011]	++ (++ means 200 nM-1000 nM)	
Cc1cc(NC2CCC(F)(F)CC2)nc(-n2ccc(C3(C)CC3)n2)n1 [NSSy7012]	+ (+ means >1 uM)	
Cc1cc(NC2CCC(F)(F)CC2)nc(-n2ccc(-c3ccccc3)n2)n1 [NSSy7028]	+ (+ means >1 uM)	
COc1cnc(-n2nc(C)cc2C)nc1NC1CCC(F)(F)CC1 [NSSy7031]	+ (+ means >1 uM)	
FC1(F)CCC(Nc2cc(N3CCOCC3)nc(-n3ccc(-c4ccccc4)n3)n2)CC1 [NSSy7034]	+ (+ means >1 uM)	
COc1cnc(-n2nc(C)c(F)c2C)nc1NC1CCC(F)(F)CC1 [NSSy7042]	+ (+ means >1 uM)	
Cc1cc(C)n(-c2cc(C(O)Cc3cnn(C)n3)cc(NC3CCC(F)(F)CC3)n2)n1 (stereo not drawn) [NSSy7053, 1-(2-((4,4-difluorocyclohexyl)amino)-6-(3,5-dimethyl-1H-pyrazol-1-yl)pyridin-4-yl)-2-(2-methyl-2H-1,2,3-triazol-4-yl) ethan-1-ol]	++ (++ means 200 nM-1000 nM)	
Cc1cc(NC2CCC(F)(F)CC2)nc(-n2ccc(OC(F)F)n2)n1 [NSSy7059, N-(4,4-difluorocyclohexyl)-2-(3(difluoromethoxy)-1H-pyrazol-1-yl)-6-methylpyrimidin-4-amine]	++ (++ means 200 nM-1000 nM)	
COc1cc(NC2CCC(F)(F)CC2)nc(-n2nc(C)c(F)c2C)n1 [NSSy7062]	++ (++ means 200 nM-1000 nM)	
COc1cnc(-n2ccc(C3CC3)n2)nc1NC1CCC(F)(F)CC1 [NSSy7063]	+ (+ means >1 uM)	
Cc1ccn(-c2cc(C(O)Cc3cn(C)nn3)cc(NC3CCC(F)(F)CC3)n2)n1 (stereo not drawn) [NSSy7079, 1-(2-((4,4-difluorocyclohexyl)amino)-6-(3-methyl-1H-pyrazol-1-yl)pyridin-4-yl)-2-(1-methyl-1H-1,2,3-triazol-4-yl)ethan-1-ol]	++ (++ means 200 nM-1000 nM)	

Continued, in another order:

SC100 (μM) [1]	Structure (SMILES)	also measured
++ (++ means 200 nM-1000 nM)	FC1(F)CCC(Nc2nccc(-n3ccc(C4CC4)n3)n2)CC1 [NSSy6945, 4-(3-cyclopropyl-1H-pyrazol-1-yl)-N-(4,4-difluorocyclohexyl)pyrimidin-2-amine]	
+ (+ means >1 uM)	CC(=O)N1CCN(c2cc(-n3nccc3C3CC3)nc(NC3CCC(F)(F)CC3)n2)CC1 [NSSy6957, 1-(4-(6-(5-cyclopropyl-1H-pyrazol-1-yl)-2-((4,4-difluorocyclohexyl)amino)pyrimidin-4-yl)piperazin-1-yl)ethan-1-one]	
++ (++ means 200 nM-1000 nM)	Cc1ccn(-c2cc(N3CCOC(C(C)(C)O)C3)nc(NC3CCC(F)(F)CC3)n2)n1 (stereo not drawn) [NSSy6958]	
+ (+ means >1 uM)	CC(=O)N1CCN(c2cc(-n3ccc(O)n3)nc(NC3CCC(F)(F)CC3)n2)CC1 [NSSy6972, 1-(4-(2-((4,4-difluorocyclohexyl)amino)-6-(3-hydroxy-1H-pyrazol-1-yl)pyrimidin-4-yl)piperazin-1-yl) ethan-1-one]	
+++ (+++ means <200 nM)	COC(=O)N1CCC(c2cc(-n3ccc(C)n3)nc(NC3CCC(F)(F)CC3)n2)CC1 [NSSy6981, methyl 4-(2-((4,4-difluorocyclohexyl)amino)-6-(3-methyl-1H-pyrazol-1-yl)pyrimidin-4-yl)piperidine-1-carboxylate]	
+++ (+++ means <200 nM)	COC(=O)N1CCC(c2cc(NC3CCC(F)(F)CC3)nc(-n3ccc(C)n3)n2)CC1 [NSSy6982]	
++ (++ means 200 nM-1000 nM)	Cc1ccn(-c2cc(N3CCOC(CO)C3)nc(NC3CCC(F)(F)CC3)n2)n1 (stereo not drawn) [NSSy6986, (4-(2-((4,4-difluorocyclohexyl)amino)-6-(3-methyl-1H-pyrazol-1-yl)pyrimidin-4-yl)morpholin-2-yl)methanol]	
+ (+ means >1 uM)	CC(=O)N1CCN(c2cc(-c3cccc(C)n3)nc(NC3CCC(F)(F)CC3)n2)CC1 [NSSy6989, 1-(4-(2-((4,4-difluorocyclohexyl)amino)-6-(6-methylpyridin-2-yl)pyrimidin-4-yl)piperazin-1-yl)ethan-1-one]	
++ (++ means 200 nM-1000 nM)	COc1ccn(-c2nc(NC3CCC(F)(F)CC3)cc(N3CCOCC3)n2)n1 [NSSy6993]	
+++ (+++ means <200 nM)	FC1(F)CCC(Nc2cc(N3CCOCC3)nc(-n3ccc(Br)n3)n2)CC1 [NSSy7021]	
+ (+ means >1 uM)	Cc1cc(NC2CCC(F)(F)CC2)nc(-n2ccc(O)n2)n1 [NSSy7027, 1-(4-((4,4-difluorocyclohexyl)amino)-6-methylpyrimidin-2-yl)-1H-pyrazol-3-ol]	
+ (+ means >1 uM)	Cc1nc(NC2CCC(F)(F)CC2)nc(-n2ccc(C3CC3)n2)n1 [NSSy7043, 4-(3-cyclopropyl-1H-pyrazol-1-yl)-N-(4,4-difluorocyclohexyl)-6-methyl-1,3,5-triazin-2-amine]	
+ (+ means >1 uM)	COc1cnc(-n2ccc(C)n2)nc1NC1CCC(F)(F)CC1 [NSSy7055]	
++ (++ means 200 nM-1000 nM)	Cc1ccn(-c2cc(C(O)Cc3cnn(C)n3)cc(NC3CCC(F)(F)CC3)n2)n1 (stereo not drawn) [NSSy7064]	
++ (++ means 200 nM-1000 nM)	Cc1ccn(-c2cc(C(O)Cc3cnnn3C)cc(NC3CCC(F)(F)CC3)n2)n1 (stereo not drawn) [NSSy7065, 1-(2-((4,4-difluorocyclohexyl)amino)-6-(3-methyl-1H-pyrazol-1-yl)pyridin-4-yl)-2-(1-methyl-1H-1,2,3-triazol-5-yl) ethan-1-ol]	
+ (+ means >1 uM)	Oc1ccn(-c2nc(NC3CCC(F)(F)CC3)cc(N3CCOCC3)n2)n1 [NSSy7087, 1-(4-((4,4-difluorocyclohexyl)amino)-6-morpholinopyrimidin-2-yl)-1H-pyrazol-3-ol]	
